From publication PMC9663589, “Anti-tumor effects of P-LPK-CPT, a peptide-camptothecin conjugate, in colorectal cancer” (Communications Biology, 2022)
“Also recorded” adds a separate entry of the source. Read-outs that look alike come from different tables or passages of the source. No end group written: not given here.

How the values were obtained:
[1] = system: intestine and liver; experiment: Organ histology (Supplementary Fig. 6); assay type: in vivo, mouse
[2] = system: patient-derived CRC xenograft; experiment: CRC patient-derived xenograft (PDX) therapeutic evaluation; assay type: in vivo, human xenograft in mice; conditions: HE staining
[3] = system: NCM460 cells; experiment: EdU incorporation assay (DNA synthesis); assay type: cell-based, human
Description: (§1) 96-well plates were seeded at 3000 cells per well and exposed to different treatments. 50 μM EdU labeling medium (RiboBio) was added and incubated for 2 h at 37 °C. The cells were then fixed with 4% […] for 10 min. After being washed with PBS, cells were stained with anti-EdU working solution for 30 min and stained with Hoechst33342 for 10 min. Cells were observed using fluorescent microscopy. The percentage of EdU-positive cells was calculated from five random fields in three wells.

[4] = system: HCT116 cells; experiment: EdU incorporation assay (DNA synthesis); assay type: cell-based, human
Description: as §1

[5] = system: LoVo cells; experiment: EdU incorporation assay (DNA synthesis); assay type: cell-based, human
Description: as §1

[6] = system: HCT116 tumors; experiment: HCT116 xenograft therapeutic evaluation; conditions: CPT 5 mg/kg iv twice a week
Description: Female BALB/c nude mice (4–6 weeks with weights of 18–22 g) were obtained from Shanghai Super-B&K Laboratory Animal Corp. Ltd. (Shanghai, China) and kept in specific pathogen free, temperature-controlled isolation. All animal studies were conducted in accordance with the principles and procedures outlined in the Guide for the Care and Use of Laboratory Animals and were approved by Ethics committee. To generate the HCT116 and U87 tumor model, about 1 × 10^6 tumor cells were subcutaneously injected into the right front flank of 4 weeks old athymic nude mice.
The HCT116 tumor-bearing mice were randomly divided into 4 groups (n = 7 for each group). […] The tumors were measured by a vernier caliper twice a week. The weights of the mice were recorded. Then, the mice were sacrificed at the 28th day. The tumors were dissected and weighted. The tumor volumes were calculated to evaluate the therapeutic efficacy.

[7] = system: Cleaved caspase 3 in colon tissues; experiment: Cleaved caspase 3 immunofluorescence in colon tissues (GI toxicity); assay type: in vivo, mouse; conditions: PDX mice, CPT eq. 3 mg/kg iv twice a week, colon tissue
[8] = system: CRC cells
[9] = system: HCT116 cells; experiment: Endocytosis inhibition assay (FITC-P-LPK internalization); assay type: cell-based, human; conditions: 10 µM, 30 min pre-treatment, then FITC-P-LPK 2 h; NC vs CPZ p = 0.0001
Description: Fig. 6 P-LPK bound to SLC1A5 and entered CRC cells through endocytosis. a, b Western blotting analysis of SLC1A5 in NCM460, HCT116, LoVo, SW480, HT29 and Colo320HSR cells. After knocking down SLC1A5 in HCT116 and HT29, the binding intensity of FITC-P-LPK to cells was observed by confocal microscopy. Bar, 10 μm. c, d Effects of different endocytosis inhibitors on the internalization of FITC-P-LPK. HCT116 cells were pre-treated with 10 µM chlorpromazine, 50 μM methyl-β-cyclodextrin, 20 µM Amiloride hydrochloride for 30 min at 37 °C. Subsequently, the cells were incubated with FITC-P-LPK for 2 h. Then the fluorescence intensity was observed by confocal microscopy and detected using a multi-well plate reader (n = 5, means ± SD, NC vs CPZ, p = 0.0001; NC vs MβCD, p = 0.9069; NC vs EIPA, p = 0.9812) (****p < 0.0001). Bar, 10 μm. e The competition experiment with SLC1A5 substrates glutamine. FITC-P-LPK was incubated with increasing concentrations (0–32 mM) of glutamine in HCT116 cells at 37 °C for 2 h. The fluorescence intensity was measured in a multi-well plate reader (n = 5, means ± SD).
Chlorpromazine (CPZ), amiloride (AMI), and methyl-β-cyclodextrin (MCD) were purchased from MedChem Express. […] Then the fluorescence intensity was detected using a multi-well plate reader (BioTek synergy4) and observed by confocal laser scanning microscopy.

[10] = system: HCT116 cells; experiment: FITC-peptide binding, confocal fluorescence intensity; assay type: cell-based, human; conditions: FITC labeled, immunofluorescence
Description: NCM460, Colo320HSR, HCT116, LoVo, HT29 and SW480 cells were respectively incubated with FITC-labeled P-LPK (Random peptide P-CON) peptides for 2 h at 37 °C and washed with PBS for three times. The cells were fixed with 4% paraformaldehyde for 30 min at room temperature, and then 4,6-diamidino-2-phenylindole (DAPI) was used for nucleic acid stain. A laser scanning confocal microscope was used to visualize the cells. The fluorescence intensity was analyzed using the Image-Pro Plus 6.0 software. For cell localization experiment, 20 μg/ml rhodamine-labeled peptides were incubated with NCM460 and HCT116 for 2 h, and then washed with PBS for three times. After that, the cell membrane was stained with a blue cell membrane probe (Thermo Fisher Scientific, Cat. No. W11263). The binding of Rhodamine-P-LPK to cells and their localization in cells was observed under a confocal microscope.

[11] = target: T1, recombinant SLC1A5 (Homo sapiens, UniProt Q15758); experiment: Surface plasmon resonance, Biacore T200; assay type: binding; conditions: Biacore T200, CM5 chip, peptide 25–400 μM, 1×PBS with 5% DMSO, 0.05% Tween 20, pH 7.4; read-out: KD (SPR)
T1 sequence (Q15758 1-541): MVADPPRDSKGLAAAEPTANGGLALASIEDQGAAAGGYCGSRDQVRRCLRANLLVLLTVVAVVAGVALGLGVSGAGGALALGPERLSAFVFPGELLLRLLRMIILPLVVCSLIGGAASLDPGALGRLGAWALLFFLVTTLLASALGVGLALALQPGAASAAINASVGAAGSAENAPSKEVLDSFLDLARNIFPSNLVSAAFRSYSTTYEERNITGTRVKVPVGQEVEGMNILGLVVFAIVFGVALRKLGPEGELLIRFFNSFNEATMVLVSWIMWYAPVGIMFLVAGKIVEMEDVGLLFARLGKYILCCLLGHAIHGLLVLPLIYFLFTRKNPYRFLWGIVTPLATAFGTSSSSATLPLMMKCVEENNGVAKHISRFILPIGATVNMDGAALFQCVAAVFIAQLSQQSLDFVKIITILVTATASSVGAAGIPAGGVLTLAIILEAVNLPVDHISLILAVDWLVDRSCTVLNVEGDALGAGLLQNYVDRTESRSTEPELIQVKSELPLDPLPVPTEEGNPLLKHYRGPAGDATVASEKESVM
Description: A surface plasmon resonance-based method using the Biacore T200 platform was developed to detect the binding of peptide (25–400 μM) to recombinant SLC1A5. The sensor chip CM5, 1 × PBS (2 mM KH2PO4, 10 mM Na2HPO4, 137 mM NaCl, 2.7 mM KCl) with 5% DMSO, 0.05% Tween 20 buffer (pH 7.4), and the amine coupling kit (which includes EDC, NHS, and ethanolamine reagents) were all obtained from GE Healthcare. The sensor chip CM5 was activated using EDC and NHS reagents, according to the standard procedure for amine coupling. 20 μg/ml SLC1A5 (about 10 μg proteins in 0.5 ml 10 mM Sodium Acetate buffer) was then covalently immobilized to the chip surface CM5 under 10 mM Sodium Acetate (pH 4.5) buffer. The resulting differences in resonance units (RU) were about 4000 RU. After de-activation by ethanolamine and washing with 1×PBS with 5% DMSO, 0.05% Tween 20 buffer (pH 7.4), the prepared sensor chip was applied to Biacore T200 for the binding assay. 1×PBS with 5% DMSO, 0.05% Tween 20 buffer (pH 7.4) was used as running buffer. A one-minute injection of a solution of 10 mM Glycine-HCl, pH 3.0 was used to regenerate the chip surface.

[12] = in vivo; set-up: species or system human xenograft in BALB/c nude mice; conditions: female, BALB/c nude, mouse, iv, 3.7 MBq, total radioactivity, T/NT ratio
Description: (§2) To obtain ^68Ga, 0.1 M HCl was used to elute a ^68Ge-^68Ga generator. The radioactivity of eluate was monitored. The radioactive elution peak was collected for ^68Ga radiolabeling experiment. An aliquot of 150 μg of compound P-LPK or P-CON was put in a glass vial and dissolved with 0.2 M sodium acetate/acetic acid buffer, pH 3.8. Then ^68GaCl3 tracer was added, and the pH was adjusted to fall in a range of 3.5~4 with 0.1 M NaOH. The solution was stored at room temperature for 0.5 h. The radiochemical purities of ^68Ga-P-LPK and ^68Ga-P-CON were measured with thin-layer chromatography (TLC), using silica gel-impregnated glass fiber stripe (iTLC SG) and 0.25 M sodium citrate/citric acid buffer as mobile phase. ^68GaCl3 was used as a control.
(§3) Each U87 and HCT116 tumor-bearing mouse was injected in a tail vein with 3.7 MBq (100 μCi, 0.1 nmol in 100 μl) of ^68Ga-P-LPK or ^68Ga-P-CON under isoflurane anesthesia (n = 4 per group). For static PET, 5-min scans were acquired at 30 min, 60 min, and 120 min after injection. The maximum radioactivity concentrations within a tumor or an organ were obtained from mean pixel values within the multiple regions of interest (ROI) volume.

[13] = system: HCT116 tumors; experiment: in vivo; set-up: species or system human xenograft in BALB/c nude mice; conditions: for T/NT ratio, unblock: female, BALB/c nude, mouse, iv, 3.7 MBq
Description: as §2, §3
(§4) For the blocking experiment, unlabeled P-LPK was first injected into mice (n = 3 per group), and 3.7 MBq ^68Ga-P-LPK was then injected. Static PET images were acquired at 30 min, 60 min and 120 min post-injection.

[14] = in vivo; set-up: species or system human xenograft in BALB/c nude mice; conditions: female, BALB/c nude, mouse, iv, 3.7 MBq, total radioactivity, T/NT ratio; remark: listed apart in the source
Description: as §2, §3, §4

[15] = target: T2, recombinant SLC1A5 (UniProt Q15758 1-541); experiment: SPR; Biacore T200; SLC1A5 covalently immobilised by amine coupling on a CM5 chip (about 4000 RU); peptide 25-400 uM as analyte; running buffer 1x PBS with 5% DMSO, 0.05% Tween 20, pH 7.4; conditions: both partners purified
T2 construct: glutamine transporter solute carrier 1 family member 5 (SLC1A5, ASCT2), recombinant protein; additional methods are in the Supplementary Material; also called solute carrier 1 family member 5; ASCT2
T2 sequence: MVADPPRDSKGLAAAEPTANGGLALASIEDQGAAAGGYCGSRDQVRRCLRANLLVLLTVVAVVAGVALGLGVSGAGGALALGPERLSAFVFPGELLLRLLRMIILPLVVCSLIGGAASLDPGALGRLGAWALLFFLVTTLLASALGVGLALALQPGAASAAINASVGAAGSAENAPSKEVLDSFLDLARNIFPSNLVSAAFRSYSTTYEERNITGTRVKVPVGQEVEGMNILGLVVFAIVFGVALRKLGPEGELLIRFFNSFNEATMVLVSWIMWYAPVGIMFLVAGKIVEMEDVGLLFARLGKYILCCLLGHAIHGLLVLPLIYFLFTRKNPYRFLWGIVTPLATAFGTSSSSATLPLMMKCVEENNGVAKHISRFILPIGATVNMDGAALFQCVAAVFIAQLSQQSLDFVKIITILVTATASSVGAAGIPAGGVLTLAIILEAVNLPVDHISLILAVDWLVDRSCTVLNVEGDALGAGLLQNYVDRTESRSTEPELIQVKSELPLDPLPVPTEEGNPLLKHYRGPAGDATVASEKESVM

[16] = relative to DMSO = 1, replicate 1
[17] = relative to DMSO = 1, replicate 2
[18] = relative to DMSO = 1, replicate 3

CC[C@@]1(O)C(=O)OCc2c1cc1n(c2=O)Cc2cc3ccccc3nc2-1 [CPT, camptothecin]
Damage to intestine and liver [1]: significantly increased | Tumor histology (cancer cells in tumor tissue) [2]: almost maintained its original morphological features | Proportion of cells in the DNA synthesis state [3, 16]: 1.185 | Proportion of cells in the DNA synthesis state [3, 17]: 1.136 | Proportion of cells in the DNA synthesis state [3, 18]: 0.9381 | Proportion of cells in the DNA synthesis state [4, 16]: 1.278 | Proportion of cells in the DNA synthesis state [4, 17]: 0.9932 | Proportion of cells in the DNA synthesis state [4, 18]: 0.9243 | Proportion of cells in the DNA synthesis state [5, 16]: 0.9805 | Proportion of cells in the DNA synthesis state [5, 17]: 0.8341 | Proportion of cells in the DNA synthesis state [5, 18]: 1.054 | Mortality during treatment [6]: More than half of the mice; also recorded: more than half of mice treated with CPT died of side effects | Quantification of Cleaved caspase 3 ([7]; CPT vs P-LPK-CPT p = 0.0051, replicate 1): 24 | Quantification of Cleaved caspase 3 ([7]; replicate 2): 11 | Quantification of Cleaved caspase 3 ([7]; replicate 3): 14 | Quantification of Cleaved caspase 3 ([7]; replicate 4): 10 | Quantification of Cleaved caspase 3 ([7]; replicate 5): 13 | Antitumor activity / cytotoxicity ([8]; 10 nM (CPT equivalent)): no obvious toxicity to CRC cells | Antitumor activity / cytotoxicity ([8]; 100 nM): obvious cytotoxicity effects

CN(C)CCCN1c2ccccc2Sc2ccc(Cl)cc21 [CPZ, chlorpromazine]
Effect on cellular internalization of FITC-P-LPK [9]: exhibited the highest inhibitory effect; also recorded: remarkably decreased the cellular internalization of FITC-P-LPK

APATVSSDMSLA [FITC-P-MUT]
Fluorescence intensity of mutant peptide bound to cells [10]: significantly reduced

DLPSRTSALASG [P-CON]
Kd [11]: 126 µM

LPKTVSSDMSLN [68Ga-P-LPK, metal not drawn]
tissue to tissue ratio at 0.5 h [12]: 1.68 | tissue to tissue ratio at 1 h [12]: 1.47 | tissue to tissue ratio at 2 h [12]: 1.28 | T/NT ratios after blocking [13]: significantly reduced | T/NT ratios vs 68Ga-P-CON [13]: significantly increased | Tumor binding after pre-injection with unlabeled P-LPK [13]: dramatically attenuated | T/NT ratio, unblock ([13]; 0.5 h): 0.51 | T/NT ratio, unblock ([13]; 1 h): 2.47 | tissue to tissue ratio at 0.5 h [14]: 2.85 | tissue to tissue ratio at 1 h [14]: 2.38 | tissue to tissue ratio at 2 h [14]: 1.87 | tissue to tissue ratio at 0.5 h ([14]; block): 0.41 | tissue to tissue ratio at 1 h ([14]; block): 1.17 | tissue to tissue ratio at 2 h ([14]; block): 0.79 | tissue to tissue ratio at 0.5 h ([14]; unblock): 0.82 | tissue to tissue ratio at 1 h ([14]; unblock): 2.91 | tissue to tissue ratio at 2 h ([14]; unblock): 2.31

B1: P-LPK peptide (peptide)
peptide: LPKTVSSDMSLN
notes: twelve-residue peptide selected from an M13 phage-display peptide library on CRC cells; Unlabelled peptide, analyte in the SPR experiment; source: synthetic peptide
Kd [15]: ~1.19 µM
